# Laboratory results reported in patent publication US20140242093A1, “METHODS AND COMPOSITIONS FOR MODULATING THE INNATE IMMUNE RESPONSE AND/OR MYOGENESIS IN A MAMMALIAN SUBJECT” (FRED HUTCHINSON CANCER RESEARCH CENTER, priority 2011, published 2014).
# System: control human primary myoblasts
# Assay: Expression microarray of primary myoblasts transduced with lentivirus carrying DUX4-fl, DUX4-s or GFP
# Description: Primary human myoblasts were collected and cultured as previously described (Snider et al., 2010). Primary myoblasts were maintained at or below 70% confluency for proliferation. For differentiation, cells were allowed to reach 95-100% confluency in growth medium. Once confluency was reached, the cells were changed to differentiation medium (F10 media supplemented with 1% horse serum, 10 μg/mL insulin, and 10 μg/mL transferrin, penicillin/streptomycin) and maintained for 4 days. Human RD cells were grown in DMEM in 10% bovine calf serum (Hyclone) and penicillin/streptomycin. The primary myoblasts were transduced with lentivirus carrying DUX-fl, DUX4- or GFP (MOI=15).
# Expression microarrays were performed on the transduced cells at 24 hours after transduction as follows. […] Samples were analyzed by Illumina Human Whole Genome microarrays. Probe intensities were corrected, normalized, and summarized by the Lumi package of Bioconductor (Du et al., 2008). Differentially expressed genes were identified by the LIMMA package of Bioconductor (Wettenhall and Smyth, 2004). Gene set enrichment analysis (GSEA) was performed using the Bioconductor GOstats package (Falcon and Gentleman, 2007).
# [1] = 3-fold criteria (>1.584 log2-fold change and FDR<0.01)
substance,measurement,setting,value
"DUX4-fl: full-length DUX4 protein (SEQ ID NO:110), expressed from lentiviral or pCS2 vectors or in vitro translated",number of genes with increased expression,,1071 genes
same,number of genes with decreased expression,"2-fold change and FDR<0.01 vs lenti-GFP, 24 hours after transduction",837 genes
same,number of genes decreased,[1],244 genes
same,number of genes increased,[1],466 genes
same,BQ437417 (no symbol given) expression fc,"Refseq BQ437417, cultured human skeletal muscle",−2.514
same,fc of ACVRL1 (expression array),Refseq NM_000020.1,−1.01
same,fc of C3 (expression array),Refseq NM_000064.1,−1
same,CA2 expression fc,Refseq NM_000067.1,6.091
same,fc of COL1A1 (expression array),Refseq NM_000088.3,−0.2992
same,CST3 fc,Refseq NM_000099.2,−1.131
same,ENG fc,Refseq NM_000118.1,−1.105
same,fc of GAMT (expression array),Refseq NM_000156.4,−1.021
same,GBE1 fc,Refseq NM_000158.2,−1.129
same,fc of IDS (expression array),Refseq NM_000202.3,−1.025
same,KCNA1 expression fc,Refseq NM_000217.2,1.832
same,SGCG expression fc,Refseq NM_000231.1,1.863
same,NP expression fc,Refseq NM_000270.1,6.961
same,fc of PTEN (expression array),Refseq NM_000314.4,−1.031
same,SLC3A1 expression fc,Refseq NM_000341.2,2.736
same,SOX9 expression fc,Refseq NM_000346.2,3.099
same,fc of PAFAH1B1 (expression array),Refseq NM_000430.2,−0.3583
same,HBA2 expression fc,Refseq NM_000517.3,4.721
same,fc of HBB (expression array),Refseq NM_000518.4,−0.354
same,HBA1 expression fc,Refseq NM_000558.3,4.787
same,IL8 expression fc,"Refseq NM_000584.2, cultured human skeletal muscle",−3.885
same,fc of IL15 (expression array),Refseq NM_000585.2,−1.013
same,TAP1 expression fc,"Refseq NM_000593.5, cultured human skeletal muscle",−3.265
same,fc of IL6 (expression array),Refseq NM_000600.1,−0.8024
same,IL10RB fc,Refseq NM_000628.3,−1.108
same,fc of ALDH2 (expression array),Refseq NM_000690.2,−1.011
same,fc of ANXA1 (expression array),Refseq NM_000700.1,−1.001
same,fc of CYP2J2 (expression array),Refseq NM_000775.2,−0.06948
same,fc of GAS6 (expression array),Refseq NM_000820.1,−1.026
same,fc of MME (expression array),Refseq NM_000902.3,−1.046
same,P4HB fc,Refseq NM_000918.3,−1.109
same,PTGFR fc,Refseq NM_000959.3,−1.089
same,TOP2A fc,Refseq NM_001067.2,−1.157
same,TYMS fc,Refseq NM_001071.1,−1.125
same,VCAM1 expression fc,"Refseq NM_001078.2, cultured human skeletal muscle",−3.014
same,ALOX15B fc,Refseq NM_001141.2,−1.071
same,ANPEP expression fc,"Refseq NM_001150.1, cultured human skeletal muscle",−2.118
same,ART3 expression fc,Refseq NM_001179.3,4.363
same,CA12 expression fc,"Refseq NM_001218.3, cultured human skeletal muscle",−2.629
same,fc of CASP4 (expression array),Refseq NM_001225.3,−1.059
same,CD68 fc,Refseq NM_001251.1,−1.091
same,CLIC1 fc,Refseq NM_001288.4,−1.083
same,CXADR expression fc,Refseq NM_001338.3,2.494
same,DPYSL2 fc,Refseq NM_001386.4,−1.1
same,EMP3 fc,Refseq NM_001425.1,−1.139
same,FLT3LG fc,Refseq NM_001459.2,−1.065
same,CXCL1 expression fc,"Refseq NM_001511.1, cultured human skeletal muscle",−3.523
same,fc of HAS1 (expression array),Refseq NM_001523.1,−1.063
same,PRMT2 fc,Refseq NM_001535.2,−1.119
same,NDST1 fc,Refseq NM_001543.3,−1.069
same,IFIT2 expression fc,"Refseq NM_001547.4, cultured human skeletal muscle",−4.315
same,IFIT1 expression fc,"Refseq NM_001548.3, cultured human skeletal muscle",−4.379
same,IFIT3 expression fc,"Refseq NM_001549.2, cultured human skeletal muscle",−3.857
same,IFRD1 expression fc,Refseq NM_001550.2,2.99
same,IGFBP4 expression fc,"Refseq NM_001552.2, cultured human skeletal muscle",−1.937
same,fc of CXCL10 (expression array),Refseq NM_001565.2,−0.8766
same,AARS fc,Refseq NM_001605.2,−1.067
same,ACP2 fc,Refseq NM_001610.1,−1.126
same,TRIM23 expression fc,Refseq NM_001656.3,2.235
same,ARSD fc,Refseq NM_001669.2,−1.079
same,fc of AUH (expression array),Refseq NM_001698.1,−1.06
same,CFB expression fc,"Refseq NM_001710.4, cultured human skeletal muscle",−5.623
same,C1R expression fc,"Refseq NM_001733.4, cultured human skeletal muscle",−2.829
same,CAV1 fc,Refseq NM_001753.3,−1.097
same,fc of RUNX1 (expression array),Refseq NM_001754.3,−0.2108
same,fc of CCND2 (expression array),Refseq NM_001759.2,−1.057
same,CD9 expression fc,Refseq NM_001769.2,1.992
same,CDH11 fc,Refseq NM_001797.2,−1.174
same,HBEGF expression fc,Refseq NM_001945.1,3.868
same,ECGF1 expression fc,"Refseq NM_001953.2, cultured human skeletal muscle",−4.299
same,EGR1 expression fc,Refseq NM_001964.2,3.749
same,ETV6 fc,Refseq NM_001987.4,−1.1
same,EYA3 expression fc,Refseq NM_001990.2,2.572
same,fc of ACSL1 (expression array),Refseq NM_001995.2,−1.015
same,FES fc,Refseq NM_002005.2,−1.108
same,FTH1 expression fc,"Refseq NM_002032.2, cultured human skeletal muscle",−2.029
